This note sets out measurements from ChEMBL document CHEMBL5505949, “Synthesis and clinical application of small-molecule inhibitors of Janus kinase” (Eur J Med Chem, 2023).

By IC50 is commonly meant the concentration that gives 50% inhibition. Low readings indicate inhibition by little substance, high ones a need for much substance.

For experiment [1], the target named is T1, Tyrosine-protein kinase JAK2 (Homo sapiens, UniProt O60674). Put plainly: Inhibition of wild type JAK2 (unknown origin).
T1 sequence (O60674 whole entry): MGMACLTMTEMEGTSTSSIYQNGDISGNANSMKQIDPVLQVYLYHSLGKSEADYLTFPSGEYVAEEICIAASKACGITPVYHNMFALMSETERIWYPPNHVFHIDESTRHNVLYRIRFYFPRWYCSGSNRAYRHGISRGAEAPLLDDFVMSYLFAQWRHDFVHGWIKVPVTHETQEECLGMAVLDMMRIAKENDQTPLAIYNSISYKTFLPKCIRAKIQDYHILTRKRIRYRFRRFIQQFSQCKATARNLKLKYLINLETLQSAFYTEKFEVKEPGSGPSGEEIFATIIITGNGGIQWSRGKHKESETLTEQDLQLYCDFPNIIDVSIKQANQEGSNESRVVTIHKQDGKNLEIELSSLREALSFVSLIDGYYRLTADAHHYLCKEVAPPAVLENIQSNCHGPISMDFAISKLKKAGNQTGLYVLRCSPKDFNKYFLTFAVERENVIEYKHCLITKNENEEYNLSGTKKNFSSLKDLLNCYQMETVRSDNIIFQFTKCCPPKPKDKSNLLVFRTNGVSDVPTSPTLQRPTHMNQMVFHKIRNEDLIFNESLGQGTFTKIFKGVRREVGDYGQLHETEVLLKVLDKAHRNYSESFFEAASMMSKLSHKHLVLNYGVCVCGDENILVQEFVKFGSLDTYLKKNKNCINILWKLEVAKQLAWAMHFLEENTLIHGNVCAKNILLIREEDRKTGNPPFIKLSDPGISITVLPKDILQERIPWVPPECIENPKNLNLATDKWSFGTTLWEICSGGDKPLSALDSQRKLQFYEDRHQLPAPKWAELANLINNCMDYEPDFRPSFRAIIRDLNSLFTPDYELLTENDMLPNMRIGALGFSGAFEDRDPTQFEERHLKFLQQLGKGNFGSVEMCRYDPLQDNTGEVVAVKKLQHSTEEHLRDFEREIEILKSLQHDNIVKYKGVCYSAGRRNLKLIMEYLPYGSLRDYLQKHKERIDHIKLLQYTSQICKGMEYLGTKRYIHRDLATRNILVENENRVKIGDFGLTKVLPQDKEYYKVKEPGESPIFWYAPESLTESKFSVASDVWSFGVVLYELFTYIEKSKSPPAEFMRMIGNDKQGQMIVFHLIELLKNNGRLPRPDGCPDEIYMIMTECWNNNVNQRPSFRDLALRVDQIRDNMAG
In experiment [2] the target is T1, Tyrosine-protein kinase JAK2. The experiment in a line: Inhibition of JAK2 (unknown origin).
The target in experiment [3] is Tyrosine-protein kinase JAK2 (Homo sapiens, UniProt O60674, V617F). The experiment in a line: Inhibition of JAK2 V617F mutant (unknown origin).
Sequence of Tyrosine-protein kinase JAK2 (Homo sapiens, UniProt O60674, V617F) (O60674 whole entry V617F): as the sequence (O60674 whole entry) above, with V617F counted along it
For experiment [4], the target named is T2, Tyrosine-protein kinase JAK3 (Homo sapiens, UniProt P52333).
T2 sequence (P52333 whole entry): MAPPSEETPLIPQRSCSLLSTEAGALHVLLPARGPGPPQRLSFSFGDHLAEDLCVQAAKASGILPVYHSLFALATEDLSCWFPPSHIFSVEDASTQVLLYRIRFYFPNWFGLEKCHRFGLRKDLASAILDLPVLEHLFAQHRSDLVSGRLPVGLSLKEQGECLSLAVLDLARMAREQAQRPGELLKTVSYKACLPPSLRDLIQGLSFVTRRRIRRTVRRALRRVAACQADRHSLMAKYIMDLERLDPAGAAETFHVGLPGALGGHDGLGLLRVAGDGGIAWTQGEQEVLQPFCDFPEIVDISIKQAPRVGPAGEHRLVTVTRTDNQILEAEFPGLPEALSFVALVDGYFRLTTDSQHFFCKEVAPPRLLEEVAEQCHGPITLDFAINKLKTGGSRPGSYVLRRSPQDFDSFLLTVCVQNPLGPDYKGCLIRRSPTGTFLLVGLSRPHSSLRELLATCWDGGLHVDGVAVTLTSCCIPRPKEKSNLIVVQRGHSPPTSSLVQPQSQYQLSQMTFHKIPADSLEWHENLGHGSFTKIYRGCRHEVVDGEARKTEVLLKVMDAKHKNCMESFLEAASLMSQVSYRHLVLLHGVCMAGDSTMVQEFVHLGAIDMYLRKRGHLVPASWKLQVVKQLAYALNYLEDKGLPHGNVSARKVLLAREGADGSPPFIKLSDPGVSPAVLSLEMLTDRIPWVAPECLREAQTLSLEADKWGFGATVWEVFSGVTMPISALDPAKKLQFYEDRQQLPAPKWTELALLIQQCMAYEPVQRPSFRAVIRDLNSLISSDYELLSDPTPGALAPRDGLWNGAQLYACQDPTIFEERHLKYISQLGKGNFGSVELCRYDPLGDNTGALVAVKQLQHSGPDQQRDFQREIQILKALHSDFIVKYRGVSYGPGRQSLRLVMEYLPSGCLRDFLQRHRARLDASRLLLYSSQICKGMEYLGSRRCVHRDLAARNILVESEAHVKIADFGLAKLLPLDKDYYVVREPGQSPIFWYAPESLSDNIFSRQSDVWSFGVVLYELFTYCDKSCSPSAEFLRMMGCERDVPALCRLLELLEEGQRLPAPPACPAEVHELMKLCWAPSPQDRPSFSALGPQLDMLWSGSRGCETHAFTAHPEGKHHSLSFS
Put plainly: Inhibition of JAK3 (unknown origin).

The structures appear in SMILES notation.

As to `Cc1cc(Nc2cc(CN3CCOCC3)c3nc(C)c(Cc4ccc(Cl)cc4F)n3n2)n[nH]1` [GANDOTINIB], the IC50 in experiment [1] worked out at 2.26 µM; in experiment [2] it was 0.068 µM; in experiment [3], 0.055 µM.

Regarding `COc1nn(C)cc1Nc1nccc(-c2c[nH]c3c(NC(=O)[C@@H](C)N4CCN(C)CC4)cccc23)n1` [GOLIDOCITINIB], the IC50 in experiment [4] stood at 30 µM; in experiment [2], 14.7 µM.
